Laboratory results: US9695155B2, “Herbicidal substituted pyrimidinyloxy benzene compounds” (E. I. DU PONT DE NEMOURS AND COMPANY, priority 2013, dated 2017)

Legend:
blackgrass = experiment: Test C postemergence; type: in vivo, Alopecurus myosuroides; conditions: for Plant response rating (0 to 100), Blackgrass: 16 g ai/ha, 0 is no effect, 100 is complete control
Summary of the method: (§1)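 Seeds were sown in loam–sand blend and sprayed preemergence, while plants at 1- to 4-leaf stage (2–18 cm) in peat-based medium received postemergence sprays; test chemicals were formulated in a non-phytotoxic solvent with surfactant. After 13–15 days in a greenhouse, injury was rated visually against controls, 0 (no effect) to 100 (complete control).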

chickweed = experiment: Test C postemergence; type: in vivo, Stellaria media; conditions: for Plant response rating (0 to 100), Chickweed: 16 g ai/ha, 0 is no effect, 100 is complete control
Summary of the method: as §1

pigweed = experiment: Test A preemergence; type: in vivo, Amaranthus retroflexus
Summary of the method: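 Compounds in non-phytotoxic solvent with surfactant applied as soil spray preemergence, or postemergence to plants 2-10 cm at one- to two-leaf stage, in loam/sand. After approximately 10 days in greenhouse, injury rated visually versus untreated controls, 0 (no effect) to 100 (complete control).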

wild oat = experiment: Test C postemergence; type: in vivo, Avena fatua; conditions: for Plant response rating (0 to 100), Oat, Wild: 16 g ai/ha, 0 is no effect, 100 is complete control
Summary of the method: as §1

corn = experiment: Test C postemergence; type: in vivo, Zea mays; conditions: for Plant response rating (0 to 100), Corn: 16 g ai/ha, 0 is no effect, 100 is complete control
Summary of the method: as §1

giant foxtail = experiment: Test C postemergence; type: in vivo, Setaria faberii; conditions: for Plant response rating (0 to 100), Foxtail, Giant: 16 g ai/ha, 0 is no effect, 100 is complete control
Summary of the method: as §1

barnyardgrass = experiment: Test C postemergence; type: in vivo, Echinochloa crus-galli; conditions: for Plant response rating (0 to 100), Barnyardgrass: 16 g ai/ha, 0 is no effect, 100 is complete control
Summary of the method: as §1

wheat, winter = experiment: Test C postemergence; type: in vivo, Triticum aestivum; conditions: for Plant response rating (0 to 100), Wheat: 16 g ai/ha, 0 is no effect, 100 is complete control
Summary of the method: as §1

yellow nutsedge = experiment: Test C postemergence; type: in vivo, Cyperus esculentus; conditions: for Plant response rating (0 to 100), Nutsedge, Yellow: 16 g ai/ha, 0 is no effect, 100 is complete control
Summary of the method: as §1

[1] = 125 g ai/ha, postemergence, visual rating, scale 0 to 100 (0 no effect, 100 complete control)
[2] = Postemergence, 31 g ai/ha, scale 0 to 100 (0 no effect, 100 complete control), 13 to 15 days
[3] = Postemergence, 62 g ai/ha, scale 0 to 100 (0 no effect, 100 complete control)
[4] = 31 g ai/ha, postemergence, visual rating, scale 0 to 100 (0 no effect, 100 complete control), 13 to 15 days

FCc1cccc(Oc2ncc(Br)cn2)c1-n1cc(C(F)(F)F)cn1 [Compound 120]
Plant response rating (0 to 100), Blackgrass (blackgrass; postemergence): 0
Plant response rating, Blackgrass (blackgrass; [1]): 30
Plant response rating, Blackgrass (blackgrass; [2]): 5
Plant response rating, Blackgrass (blackgrass; [3]): 5
Plant response rating (0 to 100), Chickweed (chickweed; postemergence): 40
Plant response rating, Chickweed (chickweed; [1]): 80
Plant response rating, Chickweed (chickweed; [3]): 70
Pigweed plant response rating (0 to 100 scale) (pigweed; 31 g ai/ha): 100
Plant response rating, Pigweed (pigweed; 125 g ai/ha, 0 to 100 scale where 0 is no effect and 100 is complete control): 100
Plant response rating (0 to 100), Oat, Wild (wild oat; postemergence): 0
Plant response rating, Oat, Wild (wild oat; [1]): 5
Plant response rating, Oat, Wild (wild oat; [3]): 5
Plant response rating (0 to 100), Corn (corn; postemergence): 5
Plant response rating, Corn (corn; [1]): 10
Plant response rating, Corn (corn; [3]): 5
Plant response rating (0 to 100), Foxtail, Giant (giant foxtail; postemergence): 5
Plant response rating, Foxtail, Giant (giant foxtail; [1]): 35
Plant response rating, Foxtail, Giant (giant foxtail; [3]): 10
Plant response rating (0 to 100), Barnyardgrass (barnyardgrass; postemergence): 5
Plant response rating, Barnyardgrass (barnyardgrass; [1]): 10
Plant response rating, Barnyardgrass (barnyardgrass; [2]): 5
Plant response rating, Barnyardgrass (barnyardgrass; [3]): 10
Plant response rating (0 to 100), Wheat (wheat, winter; postemergence): 0
Plant response rating, Wheat (wheat, winter; [1]): 0
Plant response rating, Wheat (wheat, winter; [3]): 0
Plant response rating (0 to 100), Nutsedge, Yellow (yellow nutsedge; postemergence): 0
Plant response rating, Nutsedge, Yellow (yellow nutsedge; [1]): 25
Plant response rating, Nutsedge, Yellow (yellow nutsedge; [3]): 10

Fc1cccc(Oc2ncc(Cl)cn2)c1-n1cc(C2CC2)nn1 [Compound 155]
Plant response rating (0 to 100), Blackgrass (blackgrass; postemergence): 0
Blackgrass plant response rating (blackgrass; [4]): 5
Plant response rating, Blackgrass (blackgrass; [1]): 5
Plant response rating, Blackgrass (blackgrass; [3]): 5
Plant response rating (0 to 100), Chickweed (chickweed; postemergence): 90
Chickweed plant response rating (chickweed; [4]): 80
Plant response rating, Chickweed (chickweed; [1]): 90
Plant response rating, Chickweed (chickweed; [3]): 75
Pigweed plant response rating (pigweed; 1000 g ai/ha, 0 to 100 scale, 0 no effect, 100 complete control, approx. 10 days): 100
Plant response rating (0 to 100), Oat, Wild (wild oat; postemergence): 0
Oat, Wild plant response rating (wild oat; [4]): 0
Plant response rating, Oat, Wild (wild oat; [1]): 25
Plant response rating, Oat, Wild (wild oat; [3]): 5
Plant response rating (0 to 100), Corn (corn; postemergence): 5
Corn plant response rating (corn; [4]): 5
Plant response rating, Corn (corn; [1]): 10
Plant response rating, Corn (corn; [3]): 5
Plant response rating (0 to 100), Foxtail, Giant (giant foxtail; postemergence): 0
Foxtail, Giant plant response rating (giant foxtail; [4]): 5
Plant response rating, Foxtail, Giant (giant foxtail; [1]): 25
Plant response rating, Foxtail, Giant (giant foxtail; [3]): 15
Plant response rating (0 to 100), Barnyardgrass (barnyardgrass; postemergence): 0
Barnyardgrass plant response rating (barnyardgrass; [4]): 5
Plant response rating, Barnyardgrass (barnyardgrass; [1]): 10
Plant response rating, Barnyardgrass (barnyardgrass; [3]): 5
Plant response rating (0 to 100), Wheat (wheat, winter; postemergence): 5
Wheat plant response rating (wheat, winter; [4]): 10
Plant response rating, Wheat (wheat, winter; [1]): 35
Plant response rating, Wheat (wheat, winter; [3]): 15
Plant response rating (0 to 100), Nutsedge, Yellow (yellow nutsedge; postemergence): 5
Nutsedge, Yellow plant response rating (yellow nutsedge; [4]): 5
Plant response rating, Nutsedge, Yellow (yellow nutsedge; [1]): 5
Plant response rating, Nutsedge, Yellow (yellow nutsedge; [3]): 5
